{"source": "patent US20240324594A1", "about": "“Method for Controlling Diamide Resistant Pests and Compounds Therefor” (priority 2021, published 2024)", "key": {"[1]": {"test_system": "Plutella xylostella (Diamond back moth) ryanodine receptor, containing the G4946E resistance mutation", "assay": "In vitro calcium fluorescence assay (Fluo-8 NW, FDSS) in human embryonic kidney cells expressing the ryanodine receptor", "type": "cell-based", "settings": "HEK cells expressing P. xylostella RyR G4946E; EC50 normalized against in-assay reference cyantraniliprole; ratio <=1 means equally or more active", "protocol": "Human embryonic kidney cells expressing the Plutella xylostella (Diamond back moth) ryanodine receptor, containing the G4946E resistance mutation, are loaded with Fluo-8 No Wash (NW) calcium-sensitive dye which responds by fluorescence to a change in intracellular calcium (e.g. stimulated by activation of ryanodine receptor). Test compounds are added in 10 rates to a 384-well plate containing dye-loaded cells and the fluorescent signal is measured using the Hamamatsu FDSS (Functional Drug Screening system). Dose-response curves are plotted to estimate the EC50. EC50 are normalized against an in-assay reference standard (cyantraniliprole) to address inter-assay variability. The ratio for a given compound is then obtained by the following formula: REC50=EC50 (compound)/EC50 (cyantraniliprole)."}, "[2]": {"test_system": "Resistant Plutella xylostella R4 (RyR mutation G4946E)", "assay": "Resistant Plutella xylostella R4 (Diamond back moth) larvicide L1, feeding/contact", "type": "in vivo", "settings": "CTPR used as standard", "protocol": "Resistant Plutella xylostella R4 (Diamond back moth) larvicide L1, feeding/contact 24-well microtiter plates with artificial diet were treated with aqueous test solutions prepared from 10,000 ppm DMSO stock solutions by pipetting. After drying, around 30 Plutella eggs were pipetted through a plastic stencil onto a gel blotting paper and the plate was closed with it. The samples were assessed for mortality in comparison to untreated samples 8 days after infestation. CTPR was used as standard and a resistance factor of 242 was obtained for this strain\nPlutella xylostella resistant strain R4 originated in the lab in 2021 from crossing the R1 strain with a lab-reared susceptible P. xylostella strain (SUS). R4 can be reared and tested on artificial diet and also carries the RyR mutation G4946E conferring resistance to diamides. The strain is selected approximately every two weeks with chlorantraniliprole."}, "[3]": {"test_system": "Resistant Plutella xylostella R1 (G4946E resistance mutation)", "assay": "Resistant Plutella xylostella R1 (Diamond back moth) larvicide L3, feeding/contact", "type": "in vivo", "settings": "CTPR used as standard", "protocol": "Resistant Plutella xylostella R1 (Diamond back moth) larvicide L3, feeding/contact Chinese cabbage plants were sprayed with diluted test solutions in an application chamber. Cut off leaves were placed into petri dishes with wetted filter paper and infested 1 day after application with 10 L3 multi-resistant Plutella xylostella larvae having the G4946E resistance mutation. Samples were assessed 4 days after infestation for mortality and growth regulation. CTPR was used as standard and a resistance factor of 146 was obtained for this strain.\nPlutella xylostella resistant strain R1 originally collected from Taiwan in 2012 that carries the RyR mutation G4946E conferring resistance to diamides. The strain is reared on cabbage plants (Brassica oleracea) and selected approximately every two weeks with chlorantraniliprole."}}, "data": [{"smiles": "CNC(=O)c1c(NC(=O)c2cc(Cn3ncc(C(F)(F)F)n3)nn2-c2ncccc2Cl)c(C)cc2c1OC(F)(F)O2", "note": "[2-(3-chloro-2-pyridyl)-N-[2,2-difluoro-6-methyl-4-(methylcarbamoyl)-1,3-benzodioxol-5-yl]-5-[[4-(trifluoromethyl)triazol-2-yl]methyl]pyrazole-3-carboxamide]", "values": [{"measurement": "REC50 = EC50 (compound)/EC50 (cyantraniliprole)", "setting": "[1]", "result": 6.26}]}, {"smiles": "Cc1cc2c(c(C(N)=O)c1NC(=O)c1cc(Cn3ncc(C(F)(F)F)n3)nn1-c1ncccc1Cl)OC(F)(F)O2", "note": "[Compound P21, N-(4-carbamoyl-2,2-difluoro-6-methyl-1,3-benzodioxol-5-yl)-2-(3-chloro-2-pyridyl)-5-[[4-(trifluoromethyl)triazol-2-yl]methyl]pyrazole-3-carboxamide]", "values": [{"measurement": "REC50 = EC50 (compound)/EC50 (cyantraniliprole)", "setting": "[1]", "result": 0.55}]}, {"smiles": "CNC(=O)c1cc(Cl)cc(C)c1NC(=O)c1cc(Br)nn1-c1ncccc1Cl", "note": "[CTPR, chlorantraniliprole]", "values": [{"measurement": "resistance factor obtained for strain R4", "setting": "[2]", "result": 242}, {"measurement": "resistance factor obtained for strain R1", "setting": "[3]", "result": 146}]}, {"smiles": "Cc1cc2cn[nH]c2c(C(N)=O)c1NC(=O)c1cc(Cn2nnc(C(F)(F)F)n2)nn1-c1ncccc1Cl", "values": [{"measurement": "melting point", "result": "233 to 240", "unit": "°C"}]}, {"smiles": "Cc1cc2c(c(C(=O)NC(C)C)c1NC(=O)c1cc(C(F)(F)F)nn1-c1ncccc1Cl)OC(F)(F)O2", "note": "[2-(3-chloro-2-pyridyl)-N-[2,2-difluoro-4-(isopropylcarbamoyl)-6-methyl-1,3-benzodioxol-5-yl]-5-(trifluoromethyl)pyrazole-3-carboxamide]", "values": [{"measurement": "REC50 = EC50 (compound)/EC50 (cyantraniliprole)", "setting": "[1]", "result": 7.27}]}, {"smiles": "Cc1cc2nn[nH]c2c(C(N)=O)c1NC(=O)c1cc(OC(F)F)nn1-c1ncccc1Cl", "values": [{"measurement": "melting point", "result": "147.5 to 161.2", "unit": "°C"}]}, {"smiles": "Cc1cc2c(c(C(N)=O)c1NC(=O)c1cc(C(F)(F)F)nn1-c1ncccc1Cl)OC(F)(F)O2", "note": "[Compound P19, N-(4-carbamoyl-2,2-difluoro-6-methyl-1,3-benzodioxol-5-yl)-2-(3-chloro-2-pyridyl)-5-(trifluoromethyl)pyrazole-3-carboxamide]", "values": [{"measurement": "REC50 = EC50 (compound)/EC50 (cyantraniliprole)", "setting": "[1]", "result": 0.50}]}, {"smiles": "Cc1cc2nn[nH]c2c(C(N)=O)c1NC(=O)c1cc(OCC(F)(F)F)nn1-c1ncccc1Cl", "values": [{"measurement": "melting point", "result": "142.2 to 160.3", "unit": "°C"}]}, {"smiles": "CNC(=O)c1c(NC(=O)c2cc(Cn3nnc(C(F)(F)F)n3)nn2-c2ncccc2Cl)c(C)cc2c1OC(F)(F)O2", "note": "[2-(3-chloro-2-pyridyl)-N-[2,2-difluoro-6-methyl-4-(methylcarbamoyl)-1,3-benzodioxol-5-yl]-5-[[5-(trifluoromethyl)tetrazol-2-yl]methyl]pyrazole-3-carboxamide]", "values": [{"measurement": "REC50 = EC50 (compound)/EC50 (cyantraniliprole)", "setting": "[1]", "result": 5.77}]}, {"smiles": "Cc1nc2cc(C)c(NC(=O)c3cc(Br)nn3-c3ncccc3Cl)c(C(N)=O)c2o1", "values": [{"measurement": "melting point", "result": "> 250", "unit": "°C"}]}, {"smiles": "CNC(=O)c1c(NC(=O)c2cc(Cn3cc(C(F)(F)F)nn3)nn2-c2ncccc2Cl)c(C)cc2c1OC(F)(F)O2", "note": "[2-(3-chloro-2-pyridyl)-N-[2,2-difluoro-6-methyl-4-(methylcarbamoyl)-1,3-benzodioxol-5-yl]-5-[[4-(trifluoromethyl)triazol-1-yl]methyl]pyrazole-3-carboxamide]", "values": [{"measurement": "REC50 = EC50 (compound)/EC50 (cyantraniliprole)", "setting": "[1]", "result": 2.55}]}, {"smiles": "CNC(=O)c1c(NC(=O)c2cc(C(F)(F)F)nn2-c2ncccc2Cl)c(C)cc2c1OC(F)(F)O2", "note": "[2-(3-chloro-2-pyridyl)-N-[2,2-difluoro-6-methyl-4-(methylcarbamoyl)-1,3-benzodioxol-5-yl]-5-(trifluoromethyl)pyrazole-3-carboxamide]", "values": [{"measurement": "REC50 = EC50 (compound)/EC50 (cyantraniliprole)", "setting": "[1]", "result": 4.65}]}, {"smiles": "Cc1cc2c(c(C(N)=O)c1NC(=O)c1cc(Cn3cc(C(F)(F)F)nn3)nn1-c1ncccc1Cl)OC(F)(F)O2", "note": "[Compound P22, N-(4-carbamoyl-2,2-difluoro-6-methyl-1,3-benzodioxol-5-yl)-2-(3-chloro-2-pyridyl)-5-[[4-(trifluoromethyl)triazol-1-yl]methyl]pyrazole-3-carboxamide]", "values": [{"measurement": "REC50 = EC50 (compound)/EC50 (cyantraniliprole)", "setting": "[1]", "result": 0.91}]}, {"smiles": "Cc1cc2c(c(C(N)=O)c1NC(=O)c1cc(Cn3nnc(C(F)(F)F)n3)nn1-c1ncccc1Cl)OC(F)(F)O2", "note": "[Compound P24, N-(4-carbamoyl-2,2-difluoro-6-methyl-1,3-benzodioxol-5-yl)-2-(3-chloro-2-pyridyl)-5-[[5-(trifluoromethyl)tetrazol-2-yl]methyl]pyrazole-3-carboxamide]", "values": [{"measurement": "REC50 = EC50 (compound)/EC50 (cyantraniliprole)", "setting": "[1]", "result": 0.34}]}, {"smiles": "Cc1cc2c(c(C(N)=O)c1NC(=O)c1cc(OCC(F)(F)F)nn1-c1ncccc1Cl)OC(F)(F)O2", "values": [{"measurement": "melting point", "result": "240 to 245", "unit": "°C"}]}]}
